Test results taken from ChEMBL document CHEMBL5696442, “Discovery of type II inhibitors of TGFβ-activated kinase 1 (TAK1) and mitogen-activated protein kinase kinase kinase kinase 2 (MAP4K2)” (J Med Chem, 2015).
Activity calls are given as the source filed them. No cut-off for these calls is given here.

How the values were obtained:
[1] = molecular target: T1, Serine/threonine-protein kinase TAO3 (Homo sapiens) (UniProt Q9H2K8); experiment: Inhibition of TAOK3 (unknown origin) at 1 uM by Ambit Kinomescan binding assay relative to control; values are per cent of control
T1 sequence (whole entry): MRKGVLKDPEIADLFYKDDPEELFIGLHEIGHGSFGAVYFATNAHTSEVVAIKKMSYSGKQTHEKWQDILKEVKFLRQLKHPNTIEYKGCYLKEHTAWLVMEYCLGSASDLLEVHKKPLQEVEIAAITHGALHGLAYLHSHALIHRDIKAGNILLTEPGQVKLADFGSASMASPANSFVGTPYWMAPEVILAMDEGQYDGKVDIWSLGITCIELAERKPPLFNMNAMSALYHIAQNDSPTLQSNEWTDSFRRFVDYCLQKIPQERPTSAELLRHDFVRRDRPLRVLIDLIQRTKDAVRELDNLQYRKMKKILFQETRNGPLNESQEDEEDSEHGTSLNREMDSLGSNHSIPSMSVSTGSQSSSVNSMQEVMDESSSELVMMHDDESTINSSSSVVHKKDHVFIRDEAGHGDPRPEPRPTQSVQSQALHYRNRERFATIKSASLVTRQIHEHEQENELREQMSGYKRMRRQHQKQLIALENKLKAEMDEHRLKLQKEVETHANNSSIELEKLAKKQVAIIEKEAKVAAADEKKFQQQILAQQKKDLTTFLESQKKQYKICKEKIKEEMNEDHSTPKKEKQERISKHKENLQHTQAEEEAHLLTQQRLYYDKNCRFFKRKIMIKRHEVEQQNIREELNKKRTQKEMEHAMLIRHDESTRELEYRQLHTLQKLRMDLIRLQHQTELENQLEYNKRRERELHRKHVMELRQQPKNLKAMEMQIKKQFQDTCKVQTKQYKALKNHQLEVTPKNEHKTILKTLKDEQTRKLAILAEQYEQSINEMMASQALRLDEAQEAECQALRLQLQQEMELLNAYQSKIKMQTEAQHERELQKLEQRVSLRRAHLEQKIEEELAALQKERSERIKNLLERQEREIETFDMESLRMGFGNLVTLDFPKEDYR

[2] = molecular target: Serine/threonine-protein kinase 4 (Homo sapiens) (UniProt Q13043); experiment: Inhibition of MST1 Lys1 labeling site harbouring AIHKETGQIVAIKQVPVESDLQEIIK in human A-375 cells at 0.5 uM by KiNativ Profiling analysis relative to control
Sequence of Serine/threonine-protein kinase 4 (Homo sapiens) (Q13043 whole entry, looked up): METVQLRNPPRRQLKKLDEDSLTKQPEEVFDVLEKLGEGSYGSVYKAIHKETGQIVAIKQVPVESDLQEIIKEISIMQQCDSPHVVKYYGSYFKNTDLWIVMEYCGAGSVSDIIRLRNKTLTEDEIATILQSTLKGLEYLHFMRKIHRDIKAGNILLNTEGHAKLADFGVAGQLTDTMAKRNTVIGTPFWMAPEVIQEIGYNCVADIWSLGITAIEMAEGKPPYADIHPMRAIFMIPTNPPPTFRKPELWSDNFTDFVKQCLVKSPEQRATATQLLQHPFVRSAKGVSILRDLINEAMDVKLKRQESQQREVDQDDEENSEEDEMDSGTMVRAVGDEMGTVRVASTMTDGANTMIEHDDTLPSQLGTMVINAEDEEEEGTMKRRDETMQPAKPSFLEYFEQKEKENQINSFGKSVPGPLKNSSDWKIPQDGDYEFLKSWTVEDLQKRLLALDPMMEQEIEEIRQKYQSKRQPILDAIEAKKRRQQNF

[3] = molecular target: Calcium/calmodulin-dependent protein kinase type 1D (Homo sapiens) (UniProt Q8IU85); experiment: Inhibition of CAMK1D (unknown origin) at 10 uM by Ambit Kinomescan binding assay relative to control
Sequence of Calcium/calmodulin-dependent protein kinase type 1D (Homo sapiens) (Q8IU85 whole entry, looked up, canonical isoform): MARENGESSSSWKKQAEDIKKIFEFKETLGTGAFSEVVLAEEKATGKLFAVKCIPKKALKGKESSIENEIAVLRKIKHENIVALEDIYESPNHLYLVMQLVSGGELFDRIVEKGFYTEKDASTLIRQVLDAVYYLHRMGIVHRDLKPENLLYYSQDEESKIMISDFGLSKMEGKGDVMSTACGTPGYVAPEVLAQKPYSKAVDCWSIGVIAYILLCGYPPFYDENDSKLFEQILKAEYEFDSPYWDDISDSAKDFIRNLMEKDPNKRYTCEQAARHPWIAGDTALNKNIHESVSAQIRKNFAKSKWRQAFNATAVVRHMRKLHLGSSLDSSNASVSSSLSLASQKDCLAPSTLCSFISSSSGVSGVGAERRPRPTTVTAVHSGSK

[4] = molecular target: T2, Phosphatidylinositol 4,5-bisphosphate 3-kinase catalytic subunit delta isoform (Homo sapiens) (UniProt O00329); experiment: Inhibition of PIK3CD (unknown origin) at 10 uM by Ambit Kinomescan binding assay
T2 sequence (whole entry): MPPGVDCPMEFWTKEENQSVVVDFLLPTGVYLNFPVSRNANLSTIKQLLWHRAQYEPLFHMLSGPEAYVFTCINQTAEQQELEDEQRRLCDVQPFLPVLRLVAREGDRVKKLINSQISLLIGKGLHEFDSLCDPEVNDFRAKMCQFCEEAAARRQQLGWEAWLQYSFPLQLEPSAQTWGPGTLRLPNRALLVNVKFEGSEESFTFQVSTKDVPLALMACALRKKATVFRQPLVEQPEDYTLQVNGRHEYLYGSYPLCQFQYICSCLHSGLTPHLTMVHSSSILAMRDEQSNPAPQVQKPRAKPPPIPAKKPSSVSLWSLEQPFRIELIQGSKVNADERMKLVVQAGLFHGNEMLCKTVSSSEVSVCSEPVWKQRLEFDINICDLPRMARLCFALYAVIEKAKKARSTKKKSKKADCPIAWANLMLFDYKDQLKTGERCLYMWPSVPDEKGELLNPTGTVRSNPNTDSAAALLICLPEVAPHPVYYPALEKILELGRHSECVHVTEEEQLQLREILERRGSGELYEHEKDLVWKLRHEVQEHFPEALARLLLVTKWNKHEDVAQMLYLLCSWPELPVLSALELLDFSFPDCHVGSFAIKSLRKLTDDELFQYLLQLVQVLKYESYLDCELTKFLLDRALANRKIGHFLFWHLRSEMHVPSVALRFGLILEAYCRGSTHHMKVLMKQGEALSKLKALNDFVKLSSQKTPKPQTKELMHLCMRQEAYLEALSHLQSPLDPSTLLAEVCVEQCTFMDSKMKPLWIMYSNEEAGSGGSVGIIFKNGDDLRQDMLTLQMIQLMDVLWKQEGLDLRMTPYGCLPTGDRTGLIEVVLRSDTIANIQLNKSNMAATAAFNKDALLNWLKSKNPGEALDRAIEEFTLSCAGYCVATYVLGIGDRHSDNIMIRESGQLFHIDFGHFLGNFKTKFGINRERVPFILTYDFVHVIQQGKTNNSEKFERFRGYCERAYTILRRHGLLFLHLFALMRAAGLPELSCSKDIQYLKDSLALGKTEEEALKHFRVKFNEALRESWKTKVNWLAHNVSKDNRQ

[5] = molecular target: Serine/threonine-protein kinase PAK 1 (Homo sapiens) (UniProt Q13153); experiment: Inhibition of PAK1 (unknown origin) at 10 uM by Ambit Kinomescan binding assay
Sequence of Serine/threonine-protein kinase PAK 1 (Homo sapiens) (Q13153 whole entry, looked up): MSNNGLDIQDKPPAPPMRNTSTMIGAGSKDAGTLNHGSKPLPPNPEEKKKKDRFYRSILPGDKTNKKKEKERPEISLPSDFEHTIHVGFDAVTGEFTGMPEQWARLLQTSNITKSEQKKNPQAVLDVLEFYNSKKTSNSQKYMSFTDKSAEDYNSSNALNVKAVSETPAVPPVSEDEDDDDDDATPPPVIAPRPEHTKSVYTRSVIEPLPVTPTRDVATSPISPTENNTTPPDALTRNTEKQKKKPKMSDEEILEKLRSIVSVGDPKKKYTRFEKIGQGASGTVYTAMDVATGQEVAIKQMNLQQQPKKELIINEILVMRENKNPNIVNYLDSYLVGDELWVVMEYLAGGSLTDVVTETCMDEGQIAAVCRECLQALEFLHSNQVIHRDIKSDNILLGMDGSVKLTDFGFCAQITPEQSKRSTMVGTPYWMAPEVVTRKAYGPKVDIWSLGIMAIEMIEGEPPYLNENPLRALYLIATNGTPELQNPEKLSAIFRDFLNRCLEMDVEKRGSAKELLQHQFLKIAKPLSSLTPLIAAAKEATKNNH

[6] = molecular target: 1-phosphatidylinositol 3-phosphate 5-kinase (Homo sapiens) (UniProt Q9Y2I7); experiment: Inhibition of PIP5K3 ATP labeling site in human Huh-7 cell lysate at 1 uM by KiNativ Profiling analysis relative to control; assay type: subcellular
Sequence of 1-phosphatidylinositol 3-phosphate 5-kinase (Homo sapiens) (Q9Y2I7 whole entry): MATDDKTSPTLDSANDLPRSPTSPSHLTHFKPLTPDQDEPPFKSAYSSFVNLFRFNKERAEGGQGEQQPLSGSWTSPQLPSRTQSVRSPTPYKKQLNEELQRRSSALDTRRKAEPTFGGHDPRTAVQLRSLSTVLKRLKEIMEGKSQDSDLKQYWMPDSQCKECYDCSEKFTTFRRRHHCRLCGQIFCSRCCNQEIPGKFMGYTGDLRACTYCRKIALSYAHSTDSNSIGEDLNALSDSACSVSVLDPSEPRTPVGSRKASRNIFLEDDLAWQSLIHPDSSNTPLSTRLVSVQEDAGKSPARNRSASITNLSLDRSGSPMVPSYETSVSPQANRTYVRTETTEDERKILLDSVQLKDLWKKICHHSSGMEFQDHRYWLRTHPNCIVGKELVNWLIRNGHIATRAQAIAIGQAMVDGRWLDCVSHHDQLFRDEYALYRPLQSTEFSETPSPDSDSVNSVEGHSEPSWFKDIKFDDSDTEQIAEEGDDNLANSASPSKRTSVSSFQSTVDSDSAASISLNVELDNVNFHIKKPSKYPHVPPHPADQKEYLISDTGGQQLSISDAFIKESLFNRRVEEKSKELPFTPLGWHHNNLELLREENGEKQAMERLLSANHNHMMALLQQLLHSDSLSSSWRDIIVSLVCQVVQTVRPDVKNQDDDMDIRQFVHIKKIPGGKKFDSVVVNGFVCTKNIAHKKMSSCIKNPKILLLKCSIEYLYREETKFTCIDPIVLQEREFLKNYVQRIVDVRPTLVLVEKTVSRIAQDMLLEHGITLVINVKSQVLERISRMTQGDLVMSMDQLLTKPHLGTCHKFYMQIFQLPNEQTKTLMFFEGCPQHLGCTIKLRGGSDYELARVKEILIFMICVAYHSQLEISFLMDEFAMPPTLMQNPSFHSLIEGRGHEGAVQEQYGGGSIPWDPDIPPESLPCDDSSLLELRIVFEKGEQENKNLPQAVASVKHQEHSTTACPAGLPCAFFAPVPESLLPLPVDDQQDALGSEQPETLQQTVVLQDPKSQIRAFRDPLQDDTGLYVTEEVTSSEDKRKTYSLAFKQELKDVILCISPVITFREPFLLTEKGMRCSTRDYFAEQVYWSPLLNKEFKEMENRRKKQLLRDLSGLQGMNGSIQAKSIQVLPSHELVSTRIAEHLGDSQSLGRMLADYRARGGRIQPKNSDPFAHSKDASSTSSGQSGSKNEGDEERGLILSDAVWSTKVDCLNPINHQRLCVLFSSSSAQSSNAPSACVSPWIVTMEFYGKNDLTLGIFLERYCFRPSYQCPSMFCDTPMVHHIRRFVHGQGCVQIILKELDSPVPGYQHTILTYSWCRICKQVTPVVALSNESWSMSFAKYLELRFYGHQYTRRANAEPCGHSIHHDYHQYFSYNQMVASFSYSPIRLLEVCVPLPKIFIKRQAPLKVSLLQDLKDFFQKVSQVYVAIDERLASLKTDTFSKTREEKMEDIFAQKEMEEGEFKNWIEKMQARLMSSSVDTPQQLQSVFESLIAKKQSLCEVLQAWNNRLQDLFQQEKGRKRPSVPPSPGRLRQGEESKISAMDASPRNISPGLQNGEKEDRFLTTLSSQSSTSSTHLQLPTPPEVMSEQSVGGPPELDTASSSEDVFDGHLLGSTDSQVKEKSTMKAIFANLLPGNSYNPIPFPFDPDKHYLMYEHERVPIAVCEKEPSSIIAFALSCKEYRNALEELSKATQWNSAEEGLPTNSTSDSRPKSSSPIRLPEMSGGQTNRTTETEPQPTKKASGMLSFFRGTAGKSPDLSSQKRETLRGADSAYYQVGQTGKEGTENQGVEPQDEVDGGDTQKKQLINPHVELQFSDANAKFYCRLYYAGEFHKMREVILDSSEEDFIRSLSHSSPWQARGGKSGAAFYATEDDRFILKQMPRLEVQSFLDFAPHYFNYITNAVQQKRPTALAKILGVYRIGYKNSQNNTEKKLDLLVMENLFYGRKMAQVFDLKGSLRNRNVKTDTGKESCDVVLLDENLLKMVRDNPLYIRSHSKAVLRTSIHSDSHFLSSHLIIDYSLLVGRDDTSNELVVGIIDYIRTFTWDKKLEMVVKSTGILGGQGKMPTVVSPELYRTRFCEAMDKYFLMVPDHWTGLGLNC

SMILES: CCN1CCN(Cc2ccc(NC(=O)c3ccc(C)c(/C=C/c4cnc5[nH]ccc5c4OC)c3)cc2C(F)(F)F)CC1
- percent of control [1]: 0.75%
- inhibition [2]: -4.7%

SMILES: CCN1CCN(Cc2ccc(NC(=O)c3ccc(C)c(Oc4ccnc5[nH]ccc45)c3)cc2C(F)(F)F)CC1
- inhibition [3]: 6.2%
- inhibition [4]: inactive
- inhibition [5]: inactive

SMILES: CNc1cc(Oc2cc(C(=O)Nc3cc(N4CCN(C)CC4)cc(C(F)(F)F)c3)ccc2C)ncn1
- inhibition [6]: 0.7%
